In patent US11591326B2, “Inhibitors of protein arginine methyltransferase 5 (PRMT5), pharmaceutical products thereof, and methods thereof” (PHARMABLOCK SCIENCES (NANJING), INC., priority 2018, dated 2023):

What was measured:
[1] = system: Glioblastoma U-251 cell; assay: Cell proliferation inhibition, U-251 (CellTiter-Glo); type: cell-based; conditions: Homo sapiens, U-251, incubated for 12 days (read after 8 or 12 days)
Text: (§1) Materials and Cell Lines: Z-138, U251, and MIA PaCa2 cells were purchased from ATCC (American Type Culture Collection, Manassas, Va.) and Chinese Academy of Science (Shanghai, China). Iscove's Modified Dulbecco's Medium (IMDM), Dulbecco's Modified Eagle Medium (DMEM), penicillin-streptomycin, heat inactivated fetal bovine serum (FBS), and horse serum was purchased from ThermoFisher, Waltham, Mass., USA. Corning 96- and 384-well cell culture plates were purchased from ThermoFisher, Waltham, Mass., USA. Cell-Titer Glo® was purchased from Promega Corporation, Madison, Wis., USA.
In order to evaluate the inhibitory ability of compounds synthesized on the proliferation of the Glioblastoma U-251 cell, exponentially growing cells were seeded in the cell culture media of DMEM with 10% FBS and 1% penicillin-streptomycin at a concentration of 10000 cells/ml in a 384-well plate with 20 ul per well and incubated overnight at 37° C., 5% CO2 incubator. Compounds were prepared as 10-point, 3-fold serial dilutions in DMSO, beginning at 6 mM. 1 μl of DMSO solutions from the compound stock plates were added to 99 ul of cell culture media (final top concentration of compound in the assay was 30 uM and the final concentration of DMSO was 0.5%). 20 μL of compound solutions in media were added to each well of U-251 cell plates. After adding compound solutions, assay plates were incubated for 12 days at 37° C., 5% CO2. During this incubation period, cell culture media with freshly dissolved testing compounds was changed every 4 days. After removing old media from cell plates, 40 ul of media with testing compounds dissolved, which were prepared by adding 1 ul of compound DMSO serial solutions to 199 ul of cell media, were added to the assay plates with the same layout as they were initially prepared. After 8 or 12 days, cell viability was measured using the CellTiter-Glo assay kit from Promega (Madison, Wis., USA) by quantitating the ATP present in the cell cultures. 20 μL of CellTiter-Glo reagent was added to each well of the cell plates. Luminescence was read after 10 minute of incubation with the Envision multiple plate reader from PerkinElmer (Waltham, Mass., USA). The concentrations of compounds inhibiting cell viability by 50% (IC50 values) were determined using a sigmoidal dose-response model (variable slopes, four parameters) in Prism 7 (La Jolla, Calif., USA).

[2] = system: Mantle Cell Lymphoma Z-138 cell; assay: Cell proliferation inhibition, Z-138 (CCK8); type: cell-based; conditions: Z-138, incubated 4 days
Text: as §1
In order to evaluate the inhibitory ability of compounds synthesized on the proliferation of the Mantle Cell Lymphoma Z-138 cell, exponentially growing cells were seeded in the media of IMDM with 10% horse serum and 1% penicillin-streptomycin at a concentration of 30000 cells/ml in a 96-well plate with 100 ul per well and incubated overnight at 37° C., 5% CO2 incubator. Compounds were prepared as 10-point, 3-fold serial dilutions in DMSO, beginning at 6 mM. 1 μl of DMSO solutions from the compound stock plates were added to 99 ul of cell culture media (final top concentration of compound in the assay was 30 uM and the final concentration of DMSO was 0.5%). 100 μL of compound solutions in media were added to each well of Z-138 cell plates. After adding compound solutions, assay plates were incubated for 4 days at 37° C., 5% CO2. Cell viability was measured using the Cell Counting Kit-8 (CCK8) obtained from the Beyotime Biotehnology, Shanghai, China. 20 ul of CCK8 reagent was added to each well of the Z-138 assay plate which was incubated at 37° C. for 2 hours. O.D. at 450 nm was read with the FlexStation 3 microplate reader (Molecular Devices, Sunnyvale, Calif. 94089 USA). The concentrations of compounds inhibiting cell viability by 50% (IC50 values) were determined using a sigmoidal dose-response model (variable slopes, four parameters) in Prism 7 (La Jolla, Calif.).

[3] = biological target: Human recombinant PRMT5 in complex with human recombinant MEP50 (Homo sapiens (Human), UniProt O14744); assay: PRMT5/MEP50 AlphaLISA enzyme inhibitory assay; type: biochemical; conditions: PRMT5/MEP50 25 nM, SAM 10 μM, Biotin-H4 peptide 30 nM
Chain of Human recombinant PRMT5 in complex with human recombinant MEP50 (O14744 whole entry): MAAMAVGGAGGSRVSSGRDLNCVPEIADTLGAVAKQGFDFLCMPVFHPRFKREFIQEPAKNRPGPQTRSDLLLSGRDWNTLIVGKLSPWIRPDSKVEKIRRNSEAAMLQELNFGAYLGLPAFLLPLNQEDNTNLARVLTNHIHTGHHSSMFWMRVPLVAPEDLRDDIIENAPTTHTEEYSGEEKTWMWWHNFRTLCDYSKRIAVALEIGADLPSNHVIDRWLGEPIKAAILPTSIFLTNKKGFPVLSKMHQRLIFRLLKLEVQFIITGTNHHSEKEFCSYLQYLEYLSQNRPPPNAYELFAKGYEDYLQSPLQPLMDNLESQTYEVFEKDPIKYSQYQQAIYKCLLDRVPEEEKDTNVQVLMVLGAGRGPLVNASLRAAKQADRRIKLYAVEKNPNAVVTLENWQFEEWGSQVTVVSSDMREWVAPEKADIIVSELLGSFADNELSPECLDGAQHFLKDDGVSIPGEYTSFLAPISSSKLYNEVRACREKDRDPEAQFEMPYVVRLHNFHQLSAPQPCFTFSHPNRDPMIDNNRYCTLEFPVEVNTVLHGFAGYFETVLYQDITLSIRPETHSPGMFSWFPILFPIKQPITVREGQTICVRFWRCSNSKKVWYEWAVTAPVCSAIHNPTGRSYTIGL
Chain of Human recombinant PRMT5 in complex with human recombinant MEP50 (Q9BQA1 whole entry partner): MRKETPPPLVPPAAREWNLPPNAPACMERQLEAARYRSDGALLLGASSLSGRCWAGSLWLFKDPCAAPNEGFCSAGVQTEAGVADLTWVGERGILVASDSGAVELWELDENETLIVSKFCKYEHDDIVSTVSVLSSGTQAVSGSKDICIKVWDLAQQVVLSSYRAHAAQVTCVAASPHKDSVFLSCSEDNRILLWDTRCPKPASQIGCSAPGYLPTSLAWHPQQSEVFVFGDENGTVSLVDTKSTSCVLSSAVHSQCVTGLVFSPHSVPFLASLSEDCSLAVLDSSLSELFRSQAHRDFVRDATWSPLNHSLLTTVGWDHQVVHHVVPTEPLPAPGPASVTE
How it was run: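 Insect-cell-expressed PRMT5/MEP50 (25 nM) preincubated with SAM (10 μM), then 15 min with compound in pH 8.5 Tris buffer, 1% DMSO. Biotin-H4(1–21) peptide (30 nM) reaction ran 120 min at room temperature. H4R3 methylation detected by AlphaLISA; IC50 from four-parameter sigmoidal fit.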

[4] = system: Pancreatic Carcinoma MIA PaCa-2 cell; assay: Cell proliferation inhibition, MIA PaCa-2 (CellTiter-Glo); type: cell-based; conditions: Homo sapiens, MIA PaCa-2, incubated for 12 days (read after 8 or 12 days), read-out: IC50 (μM) MIA PaCa2
Text: as §1
In order to evaluate the inhibitory ability of compounds synthesized on the proliferation of the Pancreatic Carcinoma MIA PaCa-2 cell, exponentially growing cells were seeded in the culture media of DMEM with 10% FBS, 2.5% horse serum, 1 mM of Sodium Pyruvate and 1% penicillin-streptomycin at a concentration of 2500 cells/ml in a 384-well plate with 20 ul per well and incubated overnight at 37° C., 5% CO2 incubator. Compounds were prepared as 10-point, 3-fold serial dilutions in DMSO, beginning at 6 mM. 1 μl of DMSO solutions from the compound stock plates were added to 99 ul of cell media (final top concentration of compound in the assay was 30 uM and the final concentration of DMSO was 0.5%). 20 μL of compound solutions in media were added to each well of MIA PaCa-2 cell plates. After adding compound solutions, assay plates were incubated for 12 days at 37° C., 5% CO2. During this incubation period, cell media was changed every 4 days. After removing old media from cell plates, 40 ul of media with testing compounds dissolved, which were prepared by adding 1 ul of compound DMSO serial solutions to 199 ul of cell media, were added to the assay plates with the same layout as they were initially prepared. After 8 or 12 days, cell viability was measured using the CellTiter-Glo assay kit from Promega (Madison, Wis., USA) by quantitating the ATP present in the cell cultures. 20 μL of CellTiter-Glo reagent was added to each well of the cell plates. Luminescence was read after 10 minute of incubation with the Envision multiple plate reader from PerkinElmer (Waltham, Mass., USA). The concentrations of compounds inhibiting cell viability by 50% (IC50 values) were determined using a sigmoidal dose-response model (variable slopes, four parameters) in Prism 7 (La Jolla, Calif., USA).

| Compound | IC50 [1] [µM] | IC50 ([2]; Homo sapiens, Z-138, 96 h) [µM] | IC50 [3] [nM] | IC50 [4] [µM] | IC50 ([2]; listed as Ref 1 (EPZ-015666a)) [µM] |
| --- | --- | --- | --- | --- | --- |
| CC(=O)N1CCC(Nc2ccc3c(c2)C(=O)N(C[C@@H](O)CN2CCc4ccccc4C2)CCO3)CC1 [Compound 52b] | 5.8 | 0.137 | 108 | 0.83 | – |
| O=C(NC[C@H](O)CN1CCc2ccccc2C1)c1cc(NC2COC2)ncn1 [Compound C1, reference compound] | 1.2 | 0.11 | – | 2 | 0.16 |
| O=C1c2cc(Nc3ccnnc3)ccc2OCCN1C[C@H](O)CN1CCc2ccccc2C1 [Compound 30a, (R)-4-(3-(3,4-dihydroisoquinolin-2(1H)-yl)-2-hydroxypropyl)-7-(pyridazin-4-ylamino)-3,4-dihydrobenzo[f][1,4]oxazepin-5(2H)-one] | 0.18 | 0.018 | 4.6 | 0.23 | – |
| O=C1c2cc(Nc3ccnnc3)ccc2CCN1C[C@H](O)CN1CCc2ccccc2C1 [Compound 28a, (R)-2-(3-(3,4-dihydroisoquinolin-2(1H)-yl)-2-hydroxypropyl)-7-(pyridazin-4-ylamino)-3,4-dihydroisoquinolin-1(2H)-one] | 0.5 | 0.029 | 4.9 | 0.68 | – |
| O=C1c2cc(N[C@H]3CCOC3)ccc2CCN1C[C@@H](O)CN1CCc2ccccc2C1 [Compound 10, 2-((S)-3-(3,4-dihydroisoquinolin-2(1H)-yl)-2-hydroxypropyl)-7-(((S)-tetrahydrofuran-3-yl)amino)-3,4-dihydroisoquinolin-1(2H)-one] | – | – | 1010 | – | – |
| CC(=O)N1CCC(Nc2cc3c(cc2F)OCCN(C[C@H](O)CN2CCc4ccccc4C2)C3=O)CC1 [Compound 17a, (R)-7-((1-acetylpiperidin-4-yl)amino)-4-(3-(3,4-dihydroisoquinolin-2(1H)-yl)-2-hydroxypropyl)-8-fluoro-3,4-dihydrobenzo[f][1,4]oxazepin-5(2H)-one] | – | – | 248 | – | – |
| CC(=O)N1CC(Nc2ccc3c(c2)C(=O)N(CC(O)CN2CCc4ccccc4C2)CC3)C1 (stereo not shown) [Compound 6, 7-((1-acetylazetidin-3-yl)amino)-2-(3-(3,4-dihydroisoquinolin-2(1H)-yl)-2-hydroxypropyl)-3,4-dihydroisoquinolin-1(2H)-one] | – | – | 77 | – | – |
| O=C1c2cc(NC3COC3)cnc2CCN1CC(O)CN1CCc2ccccc2C1 (stereo not shown) [Compound 16, 6-(3-(3,4-dihydroisoquinolin-2(1H)-yl)-2-hydroxypropyl)-3-(oxetan-3-ylamino)-7,8-dihydro-1,6-naphthyridin-5(6H)-one] | – | – | 447 | – | – |
| O=C(NC[C@@H](O)CN1CCc2ccccc2C1)c1cc(NC2COC2)ncn1 [Compound C2, reference compound] | 28.3 | 9.1 | – | 12.1 | – |
| CC(=O)N1CCC(Nc2cc(F)c3c(c2)C(=O)N(C[C@H](O)CN2CCc4ccccc4C2)CCO3)CC1 [Compound 2a, (R)-7-((1-acetylpiperidin-4-yl)amino)-4-(3-(3,4-dihydroisoquinolin-2(1H)-yl)-2-hydroxypropyl)-9-fluoro-3,4-dihydrobenzo[f][1,4]oxazepin-5(2H)-one] | – | 0.041 | 57 | 0.024 | – |
| CC(=O)N1CCC(Nc2cnc3c(c2)C(=O)N(CC(O)CN2CCc4ccccc4C2)CC3)CC1 (stereo not shown) [Compound 19, 3-((1-acetylpiperidin-4-yl)amino)-6-(3-(3,4-dihydroisoquinolin-2(1H)-yl)-2-hydroxypropyl)-7,8-dihydro-1,6-naphthyridin-5(6H)-one] | – | – | 623 | – | – |
| Cn1cc(Nc2cc3c(cc2Cl)CCN(CC(O)CN2CCc4ccccc4C2)C3=O)cn1 (stereo not shown) [Compound 26, 6-chloro-2-(3-(3,4-dihydroisoquinolin-2(1H)-yl)-2-hydroxypropyl)-7-((1-methyl-1H-pyrazol-4-yl)amino)-3,4-dihydroisoquinolin-1(2H)-one] | – | – | 487 | – | – |
| CC1(C)CN(CC(O)CN2CCc3ccccc3C2)C(=O)c2cc(Nc3ccnnc3)ccc21 (stereo not shown) [Compound 34, 2-(3-(3,4-dihydroisoquinolin-2(1H)-yl)-2-hydroxypropyl)-4,4-dimethyl-7-(pyridazin-4-ylamino)-3,4-dihydroisoquinolin-1(2H)-one] | – | – | 15.7 | – | – |
| O=C1c2cc(NC3COC3)ccc2CCN1CC(O)CN1CCc2ccccc2C1 (stereo not shown) [Compound 1, 2-(3-(3,4-dihydroisoquinolin-2(1H)-yl)-2-hydroxypropyl)-7-(oxetan-3-ylamino)-3,4-dihydroisoquinolin-1(2H)-one] | – | – | 97 | – | – |
| O=C1c2cc(Nc3cccnn3)ccc2OCCN1C[C@H](O)CN1CCc2ccccc2C1 [Compound 39, (R)-4-(3-(3,4-dihydroisoquinolin-2(1H)-yl)-2-hydroxypropyl)-7-(pyridazin-3-ylamino)-3,4-dihydrobenzo[f][1,4]oxazepin-5(2H)-one] | – | – | 22.5 | – | – |
| CC(=O)N1CCC(Nc2ccc3c(c2F)C(=O)N(CC(O)CN2CCc4ccccc4C2)CCO3)CC1 (stereo not shown) [Compound 46, 7-((1-acetylpiperidin-4-yl)amino)-4-(3-(3,4-dihydroisoquinolin-2(1H)-yl)-2-hydroxypropyl)-6-fluoro-3,4-dihydrobenzo[f][1,4]oxazepin-5(2H)-one] | – | – | 138 | – | – |
| O=C1c2cc(Nc3ccnnc3)ccc2CCN1C[C@@H](O)CN1CCc2ccccc2C1 [Compound 28b, (S)-2-(3-(3,4-dihydroisoquinolin-2(1H)-yl)-2-hydroxypropyl)-7-(pyridazin-4-ylamino)-3,4-dihydroisoquinolin-1(2H)-one] | – | – | 296 | – | – |
| CC(=O)N1CC2(CC(Nc3ccc4c(c3)C(=O)N(CC(O)CN3CCc5ccccc5C3)CCO4)C2)C1 (stereo not shown) [Compound 54, 7-((2-acetyl-2-azaspiro[3.3]heptan-6-yl)amino)-4-(3-(3,4-dihydroisoquinolin-2(1H)-yl)-2-hydroxypropyl)-3,4-dihydrobenzo[f][1,4]oxazepin-5(2H)-one] | – | – | 138 | – | – |
